Some results are limits rather than exact numbers.

The values that follow come from a melting point compilation (Tetko et al.; mined from patent text by program, amines drawn as free bases though some values may be those of a salt).

For the compound `CCCc1c(OCCCCCOc2cc(OCCCC(=O)OC)ccc2CCC(=O)OC)ccc2c1OCCC2=O`, the melting point – broadly, the temperature of the solid-liquid transition – lay within 58 to 59 °C. Under `OC(CNCCNc1ccccc1Cl)COc1cccc2[nH]ncc12` (centres undefined) stands 129 to 130 °C.

As for `C=CCn1cc(C(=O)O)c(=O)c2cc(F)c(N3CCNCC3)cc21`, the melting point is 136 °C. In the case of `CC(C)(C)c1nnc(-c2nn(-c3ccc(F)cc3F)c3c2C2CCC3C2)s1` (centres undefined) it was 109 to 111 °C. In turn, `CCCc1c(O)ccc2c1OC(C)(CCC(=O)O)CC2=O` (centres undefined) gave a melting point of 152 to 153 °C.

`c1ccc(-c2cncc(CN3CCN(c4ccccc4)CC3)c2)cc1` gave a melting point of 83 to 85 °C.

As for `c1c(N2CCNCC2)nc(N2CCC3(CC2)OCCO3)nc1N1CCC2(CC1)OCCO2`, the melting point fell in the range of 130 to 140 °C. Consider `O=C(O)CCc1conc1-c1ccc(F)c(Br)c1`, for which the melting point lay in the range of 151 to 152 °C. Under `Cc1nn(-c2c(Cl)cc(C(F)(F)F)cc2Cl)c(Cl)c1C=O` stands 201 °C; under `O=C1/C(=C/c2ccccc2)N2CCC1CC2`, 130 to 132 °C. Under `CSC(=S)N1C(CO)Cc2c([nH]c3ccccc23)C1CO` (centres undefined) stands 179 to 180 °C. In the case of `CN(O)C(=O)NCCCCCOc1ccc(-c2ccccc2)cc1`, the melting point fell in the range of 153 to 154 °C. For the compound `COC(=O)c1c(C)c(O)cc(OC)c1Cl`, the melting point turned out to be 92 °C. In the case of `COC=NC(C#N)=C(N)C#N` it was 138 to 139 °C. In the case of `CN(Sc1nc2ccccc2s1)C(C)(C)C` it was 56 to 58 °C; in that of `Cc1cccc(Cl)c1NC(=O)Nc1cc(N[C@H]2CC[C@H](O)CC2)ncn1`, 149 to 152 °C; in that of `CC(C)(CCC#N)c1ccc(C(=O)Nc2cn3cc(C(F)(F)F)ccc3n2)cc1`, 233 to 234 °C. For the compound `COc1ccc(-c2nn(CC(C)C)c(=O)cc2-c2ccc(OC)c(F)c2)cc1`, the melting point is 125 °C. Take `COc1ccc(-c2cncn2-c2ccc(S(C)(=O)=O)cc2)cc1`: the melting point fell in the range of 185 to 187 °C. On to `O=C(O)c1ccc(C(Cc2ccc(F)cc2)C(=O)Nc2nc3ccccc3o2)cc1` (centres undefined), for which the melting point fell in the range of 199 to 201 °C. Under `COC(=O)C(C)(C)Cc1ccc2oc(-c3ccc4ccc(Cl)cc4n3)cc2c1` stands 137 to 138 °C. In the case of `COc1cc2c3c(ccc([N+](=O)[O-])c3c1[N+](=O)[O-])C(=O)N(O)C2=O` it was 272 to 273 °C; in that of `CCOC(=O)C(Cl)=Cc1cc(Cl)ccc1-n1c(=O)c(Cl)c(C(F)(F)F)n(C)c1=O`, 160 to 164 °C. Under `COCCNC(=O)c1ccc(C(=O)NS(=O)(=O)c2ccc(CCNC(=O)CCC(C)C)cc2)cn1` stands 154 to 157 °C. As to `CC(C)(C)NS(=O)(=O)c1ccc2c(NS(=O)(=O)N3CCOCC3)cccc2c1O`, the melting point fell in the range of 105 to 110 °C.

On to `COc1ccc(-c2ccccc2C(SCC(=O)c2ccccc2)C(O)C(N)=O)cc1` (centres undefined), for which the melting point lay in the range of 132 to 134 °C. `CC(C)c1cc(C=C2NC(=S)NC2=O)cc(C(C)C)c1O` displayed a melting point of 225 to 230 °C.

`CC(=O)C(Cc1ccccc1)(N=Nc1ccc(C(O)(C(F)(F)F)C(F)(F)F)cc1)C(N)=O` (centres undefined) showed a melting point of 128 to 133 °C. Compound `COc1cccc(NC(=S)Nc2cscc2C)c1N` returned a melting point of 148 to 153 °C. Take `NC(=O)c1cc(=O)c2c(o1)c1ccccc1n2-c1ccccc1`: the melting point was 263 to 265 °C. `CCOC(=O)c1ccc(OC(=O)c2cccc(C(=O)Oc3ccc(C(=O)OCC)cc3)c2)cc1` returned a melting point of 123 to 125 °C. In the case of `CC(=O)OCC(=O)c1ccc(Cl)c(Cl)c1` it was 68 to 70 °C. In the case of `Cc1cn(C(C)(C(=O)N(C)C)c2ccccc2)nc1-c1ccccc1Cl` (centres undefined) it was 96 to 99 °C; in that of `CCC(CC)c1ccc(Cl)c2nc3n(c12)CCCCN3c1ccc(C)cc1Br`, 152 to 155 °C. Under `c1ccc(CCN2CCC(c3cc(-c4ccccn4)[nH]n3)CC2)cc1` stands 155 to 157 °C. For the compound `CC(C)(C)C(=O)SC/C(=C/c1ccccc1)C(=O)O`, the melting point stood at 88 °C. In the case of `CCCCCCCc1ccc(-c2ccc(C(=O)O)cc2)cc1` it was 163 °C. The compound `CN(C(=S)N[C@@H](Cc1ccc(NC(=O)c2c(Cl)cncc2Cl)cc1)C(=O)O)c1ccccc1Cc1ccccc1` registered a melting point of 198 °C.

`COc1cc(OC)cc(C(=CC#N)c2ccc(OC)c(N)c2)c1` registered a melting point of 93 to 95 °C.

Regarding `CCN(CC)CCOCCC1CCN(C(=O)N2c3cc(Cl)ccc3C(=O)Nc3cccnc32)CC1`, the melting point was in the range of 145 to 146 °C.

As for `O=c1[nH]c2cc(Br)c(F)c([N+](=O)[O-])c2[nH]c1=O`, the melting point lay in the range of 316 to 321 °C.

`COC(=O)Cc1cc2c(cc1CC1NCCc3cc(OC)c(OC)cc31)OCO2` (centres undefined): the melting point fell in the range of 99 to 101 °C. Consider `O=C(O)c1cn(C2CC2)c2cc(N3CCC4(C3)OCCO4)c(F)cc2c1=O`, for which the melting point is 229 to 230 °C. In the case of `CC(C)(N)Cc1ccc(NS(=O)(=O)c2ccccc2)cc1` it was 180 to 181 °C. In turn, `CN1CCN(c2cccc3ccc(C(O)c4ccccc4)cc23)CC1` (centres undefined) displayed a melting point of 162 to 163 °C. Under `Cc1cnc2c(NC(=O)c3ccccc3[N+](=O)[O-])cccc2c1-n1ccnc1` stands 199 to 204 °C; under `CCOC(=O)/C(=C\Nc1cccc(OC)c1)c1ccc(OC)cc1`, 60 to 61 °C; under `FC(F)(F)c1ccc2nc(N3CCN(c4ncccc4C(F)(F)F)CC3)[nH]c2c1`, 221 to 224 °C. Under `COCCNS(=O)(=O)c1ccc(C(CC2CCCC2)C(=O)Nc2nc3ccc(OC)nc3s2)cc1` (centres undefined) stands 209 to 211 °C; under `Cc1ccc2cccc(OCc3c(C)ccc(N(C)C(=O)CN4C(=O)c5ccccc5C4=O)c3C)c2n1`, 102 to 110 °C. The compound `COC(=O)CC(=O)CN1C(=O)c2ccccc2C1=O` returned a melting point of 139 to 140 °C. Under `CCOC(=O)CNC(=O)Oc1c(C)n(C)ccc1=O` stands 132 to 135 °C; under `Cc1c(NC(=O)c2ccc(OCc3ccc(F)cc3)cc2)ccc2cc(CN3CCCC3)cnc12`, 177 to 178 °C. `C[C@]1(COc2ccc(N3CCN(C(=O)c4ccc(OC(F)(F)F)cc4)CC3)cc2)Cn2cc([N+](=O)[O-])nc2O1`: the melting point was 202 to 203 °C.

`COc1cccc2c(NCc3ccccc3C)nc(N)nc12`: the melting point fell in the range of 274 to 275 °C.

Take `CC(C(=O)Cl)c1ccc(C(=O)c2cccs2)cc1` (centres undefined): the melting point was determined as 149 °C. In the case of `CS(=O)c1ccc(C2=C(c3ccc(F)cc3)C(=O)C(C)(C)O2)cc1` (centres undefined) it was 134 to 136 °C; in that of `CCN(COC)c1cc(-c2ccnc(Nc3cccc(Cl)c3)n2)ccn1`, 114 to 115 °C; in that of `CCCCCS(=O)(=O)NC(=O)/C(=C/c1ccc(OCCOC)cc1Oc1ncc(Cl)cc1Cl)CC`, 118 °C. In the case of `CCOC(=O)CCc1cn(Cc2ccc(C(=O)NCc3nc(-c4ccccc4)oc3C)cc2)nc1-c1ccccc1` it was 190 to 191 °C. Consider `CS(=O)(=O)Nc1ccc(C(=O)Nc2cn3cc(Cl)ccc3n2)cc1`, for which the melting point fell in the range of 293 to 295 °C. Under `CC(C)C(NC(=O)N(C)Cc1ccccn1)C(=O)NC(Cc1ccccc1)C(O)C(Cc1ccccc1)NC(=O)C(NC(=O)N(C)Cc1ccccn1)C(C)C` (centres undefined) stands 70 to 72 °C; under `COc1ccc2c(c1)CCN=C2C`, 206 to 207 °C; under `NC(=O)c1ncn(Cc2ccc(Cl)c(C(F)(F)F)c2)c1N`, 230 to 232 °C. In the case of `CS(=O)c1cc(Br)nc(Br)c1` (centres undefined) it was 98 to 100 °C; in that of `CCOC(C)n1c(C)nc(-c2ccccc2)c1-c1ccccc1` (centres undefined), 87 to 89 °C.

Compound `C[C@@H](Nc1c(Nc2ccc(C#N)c(Cl)c2)c(=O)c1=O)C(C)(C)C` showed a melting point above 300 °C. Regarding `NC12CCCC(C1)C1CCC2C1` (centres undefined), the melting point is 111 to 113 °C.

`COc1cccc(C23CCCC(C2)NC3=O)c1` (centres undefined) registered a melting point of 109 to 111 °C. Under `COC1(C#Cc2ncn3c2CN(C)C(=O)c2c(Cl)cccc2-3)CCCC1` stands 174 to 175 °C.

In the case of `CNc1ncnc2c(NC3OC(CO)C(O)C3O)ncnc12` (centres undefined), the melting point worked out at 230 °C.

`O=C(O)CCCCCNC(=O)OCc1ccccc1` registered a melting point of 54 to 55.5 °C. On to `CCOC(=O)Cc1c(-c2ccccc2)c2cc(C)c(C)cc2oc1=O`, for which the melting point lay in the range of 127 to 128 °C. Turning to `COC(=O)CC(C)C(=O)c1ccc(O)cc1` (centres undefined), the melting point is 89 to 91 °C. With `CCOC(=O)c1ccc2cc(I)ccc2n1`, the melting point was in the range of 119 to 121 °C. The compound `CN1CC[C@@H](c2c(O)cc(O)c3c(=O)cc(-c4ccccc4)oc23)[C@@H]1CO` showed a melting point of 212 to 215 °C.

`Nc1nc2c(s1)CCN(CC1=Cc3ccccc3C1)CC2` registered a melting point of 134 to 138 °C. `COc1ccc2c(cccc2[C@H]2CO[C@H](CCCNC(=O)OCC(=O)NC3CC3)OC2)c1` displayed a melting point of 176 °C.

As for `Clc1ccc(Nc2nnc(Cc3ccncn3)c3ccccc23)cc1`, the melting point lay in the range of 174 to 176 °C.

Regarding `CC(C)(C)NCC(O)COc1cc(N)ccc1-c1ccc(=O)[nH]n1` (centres undefined), the melting point is 198 to 202 °C. In the case of `CS(=O)(=O)NCCNCc1ccccc1` it was 71 to 73 °C; in that of `COCCNc1ccc(C2=NNC(=O)NC2C)cc1` (centres undefined), 160 to 165 °C; in that of `C=CCOC(=O)c1ccc(OC(=O)c2ccc(O[Si](C)(C)C(C)(C)C)c(C34CC5CC(CC(C5)C3)C4)c2)nc1`, 130 to 132 °C. In the case of `CC1CCN(C=Nc2ccc3c(c2)C(=O)c2ccc(N=CN4CCC(C)CC4)cc2C3=O)CC1` it was 229 to 233 °C; in that of `CCN1CCCc2cc(C(=O)c3ccc4c(c3)CCCN4CC)ccc21`, 120 °C. In the case of `CC(C)(C)NS(=O)(=O)c1ccccc1-c1ccccn1` it was 147 to 150 °C; in that of `CC(C)C(=O)O[C@H]1[C@H](C)OC(=O)[C@@H](NC(=O)OC(C)(C)C)COC(=O)[C@@H]1CSc1ccccn1`, 54 to 58 °C; in that of `CCn1c(=O)c2[nH]c(/C=C/c3cc(OC)c(OC)cc3Br)nc2n(CC)c1=O`, above 285 °C. For the compound `Nc1nccc(-c2ccc(OCC(O)CN3CCN(c4cccc(Cl)c4)CC3)cc2)n1` (centres undefined), the melting point is 197 to 198 °C.
